In patent publication US12465594B2 (Brown University, priority 2018, dated 2025):
Entries after “also recorded” stand apart in the source; their conditions may differ.

Experiments:
D4 = D4 (Homo sapiens, UniProt P21917); assay: PDSP binding assay; settings: 10 μM, quadruplicate, cloned target
H3 = H3 (Homo sapiens, UniProt Q9Y5N1); assay: PDSP binding assay; settings: 10 μM, quadruplicate, cloned target
Sigma 2 = assay: PDSP binding assay; settings: 10 μM, quadruplicate, cloned target
D5 = D5 (Homo sapiens, UniProt P21918); assay: PDSP binding assay; settings: 10 μM, quadruplicate, cloned target
Alpha2B = Alpha2B (Homo sapiens, UniProt P18089); assay: PDSP binding assay; settings: 10 μM, quadruplicate, cloned target
BZP Rat Brain Site = assay: PDSP binding assay; settings: 10 μM, quadruplicate
CYP2D6 = CYP2D6 (Homo sapiens, UniProt P10635); assay: in vitro; settings: microsomes
CRFBP-CRF2 complex = target: T1, CRFBP-CRF2 complex (Homo sapiens, UniProt P24387+Q13324); assay: CRFBP-CRF2 Ca2+ assay (FDSS7000; dose-response, Schild analysis); format: cell-based; settings: for CRF maximal response with increasing concentrations of compound / Mechanism of antagonism relative to CRF (Schild analysis): 1.11, 3.33, 10 μM compound; for Antagonism of the CRFBP-CRF2 response: dose-response in presence of EC80 CRF
T1 construct: FLAG (N); HA (N); expressed in transfected cells
T1 sequence (P24387+Q13324 with tags, fused parts or gaps): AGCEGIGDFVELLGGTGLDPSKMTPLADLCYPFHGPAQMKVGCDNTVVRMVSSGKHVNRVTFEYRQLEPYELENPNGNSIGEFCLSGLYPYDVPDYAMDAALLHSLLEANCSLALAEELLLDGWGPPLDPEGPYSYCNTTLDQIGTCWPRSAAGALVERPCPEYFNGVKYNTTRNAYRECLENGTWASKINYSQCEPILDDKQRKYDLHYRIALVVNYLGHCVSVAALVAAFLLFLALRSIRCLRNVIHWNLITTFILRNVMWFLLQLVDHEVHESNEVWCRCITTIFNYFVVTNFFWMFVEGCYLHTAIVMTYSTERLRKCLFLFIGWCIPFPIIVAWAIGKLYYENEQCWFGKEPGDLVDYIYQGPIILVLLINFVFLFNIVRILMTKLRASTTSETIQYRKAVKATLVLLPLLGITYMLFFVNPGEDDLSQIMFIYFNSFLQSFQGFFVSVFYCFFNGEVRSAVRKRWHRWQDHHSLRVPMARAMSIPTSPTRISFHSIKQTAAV
Method: CRFBP-CRF2 HEK293 cells (1,000 cells/6 μL per well) were plated in 1536-well black walled clear-bottom Poly-D-Lysine coated plates (Corning) in Assay Media (Dulbecco's Modified Eagle Medium (DMEM) (1×), phenol red free, 1% Defined Fetal Bovine Serum (FBS) (Hyclone), 1×Penicillin/Streptomycin (P/S), and 1×L-Glutamine) using a Multidrop Combi (Thermo). Cell plates were spun at 500 rpm for 1 minute in a centrifuge, covered with Kalypsys lids, and incubated overnight at 37° C. in the presence of 5% CO2. The following day, 2 μL per well of FLIPR Calcium 4 Dye (Molecular Devices), prepared in Assay Buffer (1×Hanks' balanced salt solution, 20 mM HEPES, 0.1% Bovine Serum Albumin [Sigma], and 2.5 mM probenecid [Sigma], pH 7.4) was added to each well of the assay plate at 0.5×according to the Manufacturer's Instructions using the Multidrop Combi (Thermo) dispenser and the cells were incubated in dye for 1 hour 37° C. in the presence of 5% CO2. Reagents are from Invitrogen unless otherwise stated.
Calcium flux was measured using a Functional Drug Screening System 7000 (FDSS7000; Hamamatsu, Tokyo, Japan). Baseline readings were taken (9 images at 1 Hz; excitation, 470±20 nm; emission, 540±30 nm), and then test compounds (approximately 53 nL) were added at the 10 second time-point using the FDSS's integrated 1536 well pin-tool from source library plates (Corning) containing 2 mM test compound stocks in 100% DMSO. […] Agonist “Hits” were selected by comparing the amplitude of the responses at the time of test compound addition to the CRF maximal response on each plate.
For confirmation screening, the CRFBP-CRF2 Ca^2+ assay was performed in the identical as the primary screen with the following exceptions. For each test compound, eight assay plates were prepared, each of which received a different concentration of test compound by pin-tool in the FDSS7000 Ca^2+ assay. For the agonist confirmation screening, compounds were tested at 53.0 μM, 26.5 μM, 13.3 μM, 6.63 μM, 3.31 μM, 1.66 μM, 0.828 μM, and 0.414 μM. For the antagonist confirmation screening, compounds were tested at 47.1 μM, 23.6 μM, 11.8 μM, 5.89 μM, 2.94 μM, 1.47 μM, 0.736 μM, and 0.368 μM.

Alpha2B, sequence (P18089 whole entry): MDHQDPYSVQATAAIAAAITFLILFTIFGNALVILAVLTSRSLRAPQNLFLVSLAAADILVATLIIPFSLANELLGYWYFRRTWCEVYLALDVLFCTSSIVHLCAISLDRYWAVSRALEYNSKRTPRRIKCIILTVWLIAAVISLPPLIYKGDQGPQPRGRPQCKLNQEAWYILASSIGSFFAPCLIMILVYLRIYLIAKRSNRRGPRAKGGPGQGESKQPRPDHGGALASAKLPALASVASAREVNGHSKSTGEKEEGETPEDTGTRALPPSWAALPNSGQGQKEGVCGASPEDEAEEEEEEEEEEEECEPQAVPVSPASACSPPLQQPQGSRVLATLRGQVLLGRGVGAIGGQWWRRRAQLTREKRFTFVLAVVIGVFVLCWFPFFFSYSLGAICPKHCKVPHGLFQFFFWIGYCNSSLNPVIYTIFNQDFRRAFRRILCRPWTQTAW
H3, sequence (Q9Y5N1 whole entry): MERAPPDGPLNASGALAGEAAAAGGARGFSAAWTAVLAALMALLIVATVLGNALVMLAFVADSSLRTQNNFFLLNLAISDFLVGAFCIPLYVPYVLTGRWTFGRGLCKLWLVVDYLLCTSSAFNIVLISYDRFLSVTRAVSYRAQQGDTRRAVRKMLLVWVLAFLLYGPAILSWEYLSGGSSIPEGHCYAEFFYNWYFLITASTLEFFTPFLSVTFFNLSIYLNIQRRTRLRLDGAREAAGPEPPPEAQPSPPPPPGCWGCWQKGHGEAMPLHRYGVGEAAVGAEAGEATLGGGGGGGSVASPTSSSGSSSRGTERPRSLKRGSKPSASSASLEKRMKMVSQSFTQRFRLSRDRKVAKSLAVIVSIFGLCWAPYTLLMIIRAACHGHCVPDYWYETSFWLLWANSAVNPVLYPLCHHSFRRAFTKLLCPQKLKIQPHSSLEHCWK
D4, sequence (P21917 whole entry): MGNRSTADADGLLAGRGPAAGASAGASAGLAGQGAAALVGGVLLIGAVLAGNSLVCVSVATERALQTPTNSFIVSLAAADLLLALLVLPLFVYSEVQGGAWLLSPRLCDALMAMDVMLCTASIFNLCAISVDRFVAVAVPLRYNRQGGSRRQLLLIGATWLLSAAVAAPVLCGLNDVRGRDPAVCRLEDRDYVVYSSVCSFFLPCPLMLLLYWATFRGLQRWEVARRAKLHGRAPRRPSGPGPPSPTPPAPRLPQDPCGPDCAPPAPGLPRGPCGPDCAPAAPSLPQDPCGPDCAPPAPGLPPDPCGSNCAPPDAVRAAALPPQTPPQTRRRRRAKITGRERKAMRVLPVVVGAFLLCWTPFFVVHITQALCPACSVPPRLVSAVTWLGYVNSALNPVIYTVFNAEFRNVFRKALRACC
CYP2D6, sequence (P10635 whole entry): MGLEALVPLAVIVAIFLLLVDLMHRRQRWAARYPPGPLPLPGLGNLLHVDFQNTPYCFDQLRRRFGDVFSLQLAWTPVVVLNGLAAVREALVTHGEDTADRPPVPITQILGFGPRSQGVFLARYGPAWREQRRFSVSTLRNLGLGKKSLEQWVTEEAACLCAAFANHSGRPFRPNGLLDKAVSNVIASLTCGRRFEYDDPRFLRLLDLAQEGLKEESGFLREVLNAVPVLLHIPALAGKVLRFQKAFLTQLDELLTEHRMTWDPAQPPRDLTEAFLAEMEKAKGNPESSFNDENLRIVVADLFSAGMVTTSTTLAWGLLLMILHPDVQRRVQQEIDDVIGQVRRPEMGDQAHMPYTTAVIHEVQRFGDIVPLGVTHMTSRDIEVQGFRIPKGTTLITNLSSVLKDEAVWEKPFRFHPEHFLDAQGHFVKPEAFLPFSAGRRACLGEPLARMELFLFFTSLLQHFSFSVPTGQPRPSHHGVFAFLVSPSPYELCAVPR
D5, sequence (P21918 whole entry): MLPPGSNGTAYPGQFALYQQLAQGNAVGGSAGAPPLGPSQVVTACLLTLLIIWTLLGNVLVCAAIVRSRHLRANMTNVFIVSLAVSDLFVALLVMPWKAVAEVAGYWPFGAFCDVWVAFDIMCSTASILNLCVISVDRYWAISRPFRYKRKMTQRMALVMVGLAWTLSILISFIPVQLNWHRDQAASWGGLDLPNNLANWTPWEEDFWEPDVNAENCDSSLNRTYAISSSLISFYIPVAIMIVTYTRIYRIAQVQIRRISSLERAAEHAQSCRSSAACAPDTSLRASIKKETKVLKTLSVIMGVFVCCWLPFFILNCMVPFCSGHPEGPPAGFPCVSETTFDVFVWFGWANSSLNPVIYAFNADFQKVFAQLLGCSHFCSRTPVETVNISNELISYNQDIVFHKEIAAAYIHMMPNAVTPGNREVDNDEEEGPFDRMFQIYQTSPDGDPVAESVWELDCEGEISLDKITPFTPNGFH

Compound | Activity at D4 (binding assay) (D4) | Activity at H3 (binding assay) (H3) | Activity at Sigma 2 (binding assay) (Sigma 2) | Activity at D5 (binding assay) (D5) | Activity at Alpha2B (binding assay) (Alpha2B) | Activity at BZP Rat Brain Site (binding assay) (BZP Rat Brain Site) | inhibition at 10 µM (CYP2D6) | CRF maximal response with increasing concentrations of compound (CRFBP-CRF2 complex) | Mechanism of antagonism relative to CRF (Schild analysis) (CRFBP-CRF2 complex) | Mechanism of antagonism relative to CRF (Schild analysis) (CRFBP-CRF2 complex; listed as MLS-0046181) | Antagonism of the CRFBP-CRF2 response (CRFBP-CRF2 complex)
Brc1ccccc1-c1nnc(CSc2nnnn2-c2ccccc2)o1 [MLS-0046818] | −42% | −15% | −7% | 12% | 2% | 35% | -128% | decreased | noncompetitively antagonize CRF responses | noncompetitive interaction | only inhibit the CRFBP-CRF2 response
CC(C)Cn1c(SCC(=O)N2CCc3ccccc3C2)nc2cc(Cl)ccc2c1=O [MLS-0219419] | −60% | −9% | 9% | −15% | 0% | 25% | -21% | decreased | noncompetitive interaction; also recorded: noncompetitively antagonize CRF responses | – | only inhibit the CRFBP-CRF2 response
